According to patent publication US9243247B2, “Composition for promoting apoptosis or inhibiting cell growth, comprising epstein-barr virus microrna” (Catholic University Industry Academic Cooperation Foundation, priority 2011, dated 2016):

Columns and labels:
Assay type in all cases: cell-based
AGS cell strain [1] = assay: Cell growth test (CCK-8 assay) after transfection of BART miRNA mimics; settings: 72 hours after transfection; for Relative Cell Growth: mimic 10 nM, relative to scrambled control (=1)
How it was run: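 EBV-negative AGS gastric cells in RPMI1640 with 10% FBS, seeded 1×10^3 cells/well and transfected with synthetic mature BART miRNA mimics (10 nM; dose series 1, 3, 10, 30 nM) via G-fectin. Growth read by CCK-8 after 72 h (or over time), 2 h at 37 °C, absorbance measured.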

AGS cell strain [2] = assay: Effect on cell cycle (propidium iodide staining, FACS, sub G1); settings: mimic 10 nM, 10 uM 5-FU 24 h after transfection, then 48 hours, relative to scrambled control (=1)
How it was run: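 AGS gastric cells (EBV-negative), 2×10^5 per well, were transfected with synthetic miRNA (10 nM). DNA was stained with propidium iodide, and the cell-cycle-altered fraction was measured by FACS.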

AGS cell strain [3] = assay: Measurement of apoptosis (Annexin V staining, FACS); settings: for Relative Apoptotic cell: AGS, mimic 10 nM, 10 uM 5-FU 24 h after transfection, then 48 hours, Annexin V, relative to scrambled control (=1), n=9; for effect on cell growth and apoptosis (summary statement): mimics transfected to AGS, tumor cell strain not infected with EBV
How it was run: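 EBV-negative AGS cells (2×10^5/well) were transfected with 10 nM synthetic miRNA. Twenty-four hours later they received 10 uM 5-FU for 48 h at 37 °C. The apoptotic cell ratio was measured by PE Annexin V staining and FACS.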

Substance	Relative Cell Growth (AGS cell strain [1]; n=9)	Relative Sub G1 (AGS cell strain [2])	Relative Apoptotic cell (AGS cell strain [3])	effect on cell growth and apoptosis (summary statement) (AGS cell strain [3])	also measured
BART18-5p: EBV BART miRNA mimic, double stranded RNA; sense SEQ NO: 37, antisense SEQ NO: 38 (sense UCAAGUUCGCACUUCCUAUACA; antisense UGUAUAGGAAGUGCGAACUUGA; chemistry not given here)	1.395	0.9828	1.202	inhibit cell growth and promote apoptosis	Relative Apoptotic cell (AGS cell strain [3]; listed as 18-5p): significantly higher
BART19-3p: EBV BART miRNA mimic, double stranded RNA; sense SEQ NO: 71, antisense SEQ NO: 72 (sense UUUUGUUUGCUUGGGAAUGCU; antisense AGCAUUCCCAAGCAAACAAAA; chemistry not given here)	1.237	1.244	0.9742		Relative Sub G1 (AGS cell strain [2]; listed as 19-3p): increased
BART19-5p: EBV BART miRNA mimic, double stranded RNA; sense SEQ NO: 69, antisense SEQ NO: 70 (sense ACAUUCCCCGCAAACAUGACAUG; antisense CAUGUCAUGUUUGCGGGGAAUGU; chemistry not given here)	1.151	1.349	1.071		Relative Sub G1 (AGS cell strain [2]; listed as 19-5p): increased
BART20-3p: EBV BART miRNA mimic, double stranded RNA; sense SEQ NO: 75, antisense SEQ NO: 76 (sense CAUGAAGGCACAGCCUGUUACC; antisense GGUAACAGGCUGUGCCUUCAUG; chemistry not given here)	0.8577	1.618	1.416	inhibit cell growth and promote apoptosis	cell growth (AGS cell strain [1]; 30 nM): almost no cell growth; cell growth depending on mimic concentration (onset of inhibition) (AGS cell strain [1]; 1, 3, 10 and 30 nM): decreased cell growth, beginning at 10 nm; Relative Cell Growth (AGS cell strain [1]; n=9, listed as miR-BART20-3p): inhibited cell growth; Relative Sub G1 (AGS cell strain [2]; listed as 20-3p): increased; Relative Apoptotic cell (AGS cell strain [3]; listed as 20-3p): significantly higher
BART20-5p: EBV BART miRNA mimic, double stranded RNA; sense SEQ NO: 73, antisense SEQ NO: 74 (sense UAGCAGGCAUGUCUUCAUUCC; antisense GGAAUGAAGACAUGCCUGCUA; chemistry not given here)	1.245	1.379	1.075		Relative Sub G1 (AGS cell strain [2]; listed as 20-5p): increased
BART21-3p: EBV BART miRNA mimic, double stranded RNA; sense SEQ NO: 35, antisense SEQ NO: 36 (sense CUAGUUGUGCCCACUGGUGUUU; antisense AAACACCAGUGGGCACAACUAG; chemistry not given here)	1.215	0.965	1.155	inhibit cell growth and promote apoptosis	Relative Apoptotic cell (AGS cell strain [3]; listed as 21-3p): significantly higher
BART21-5p: EBV BART miRNA mimic, double stranded RNA; sense SEQ NO: 33, antisense SEQ NO: 34 (sense UCACUAGUGAAGGCAACUAAC; antisense GUUAGUUGCCUUCACUAGUGA; chemistry not given here)	1.304	1.087	0.9207		
BART22-3p: EBV BART miRNA mimic, double stranded RNA; sense SEQ NO: 55, antisense SEQ NO: 56 (sense UUACAAAGUCAUGGUCUAGUAGU; antisense ACUACUAGACCAUGACUUUGUAA; chemistry not given here)	1.495	1.054	1.106		
BART22-5p: EBV BART miRNA mimic, double stranded RNA; sense SEQ NO: 53, antisense SEQ NO: 54 (sense UGCUAGACCCUGGAGUUGAACC; antisense GGUUCAACUCCAGGGUCUAGCA; chemistry not given here)	1.529	0.9654	1.197	inhibit cell growth and promote apoptosis	Relative Apoptotic cell (AGS cell strain [3]; listed as 22-5p): significantly higher
